We go through one compound from BindingDB's records for patent US9334290 (Bristol Myers Squibb, 2016).

This experiment has as its target Tyrosine-protein kinase JAK2 (Homo sapiens, UniProt O60674). Description: Jak2 Tyrosine Kinase Assay. The note with it: pH 7.4; 25 °C.

Chain of Tyrosine-protein kinase JAK2 (O60674 whole entry): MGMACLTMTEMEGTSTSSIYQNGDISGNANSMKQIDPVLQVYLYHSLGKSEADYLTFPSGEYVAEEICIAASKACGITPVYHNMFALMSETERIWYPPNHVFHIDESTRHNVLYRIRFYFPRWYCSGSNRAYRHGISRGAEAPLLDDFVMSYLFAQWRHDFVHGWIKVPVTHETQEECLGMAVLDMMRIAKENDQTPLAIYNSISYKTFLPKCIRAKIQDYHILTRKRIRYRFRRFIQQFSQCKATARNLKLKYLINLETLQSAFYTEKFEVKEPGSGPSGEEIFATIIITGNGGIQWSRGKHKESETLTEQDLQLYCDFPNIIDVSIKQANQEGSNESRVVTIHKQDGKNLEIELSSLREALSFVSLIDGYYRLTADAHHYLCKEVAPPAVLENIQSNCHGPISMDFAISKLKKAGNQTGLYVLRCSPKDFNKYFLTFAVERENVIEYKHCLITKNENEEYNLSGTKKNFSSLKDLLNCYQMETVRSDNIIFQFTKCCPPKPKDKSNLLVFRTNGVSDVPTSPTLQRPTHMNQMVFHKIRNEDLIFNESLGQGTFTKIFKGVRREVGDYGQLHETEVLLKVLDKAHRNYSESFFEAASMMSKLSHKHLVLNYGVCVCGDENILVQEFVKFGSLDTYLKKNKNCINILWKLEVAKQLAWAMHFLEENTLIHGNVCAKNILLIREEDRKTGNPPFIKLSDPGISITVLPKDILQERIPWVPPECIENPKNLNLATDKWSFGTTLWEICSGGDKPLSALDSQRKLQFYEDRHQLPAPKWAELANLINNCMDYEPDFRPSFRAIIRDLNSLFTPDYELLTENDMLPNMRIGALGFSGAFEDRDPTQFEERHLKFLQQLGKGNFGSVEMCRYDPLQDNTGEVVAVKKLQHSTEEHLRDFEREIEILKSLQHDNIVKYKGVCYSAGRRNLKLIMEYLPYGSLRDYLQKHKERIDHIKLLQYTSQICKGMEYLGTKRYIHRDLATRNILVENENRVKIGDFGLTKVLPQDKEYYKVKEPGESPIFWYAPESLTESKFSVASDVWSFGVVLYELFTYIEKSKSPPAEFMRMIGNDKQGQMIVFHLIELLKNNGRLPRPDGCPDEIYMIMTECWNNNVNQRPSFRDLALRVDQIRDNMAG

`Cc1c(-c2c(F)cc(C(N)=O)c3[nH]c4cc(C(C)(C)O)ccc4c23)cccc1-n1c(=O)[nH]c2c(F)cccc2c1=O` [US9334290, 21] had an IC50 of 760 nM.
